# Measurements: patent US3968204A, “Antibiotic A-2315” (priority 1975, dated 1976)
# Assays:
# Propionibacterium acnes = assay: MIC, anaerobic bacteria; format: cell-based; conditions: Cutibacterium acnes
# [1] = tested on: Bacteriodes fragilis ssp. fragilis; assay: MIC, anaerobic bacteria; format: cell-based
# Acute toxicity in mice = format: in vivo
# Procedure: The acute toxicity of antibiotic A-2315 factor A, administered either orally or subcutaneously to mice and expressed as LDo, is greater than 500 mg./kg. The acute toxicities of the A-2315 factors, administered intraperitoneally to mice and expressed as LD50 are as follows: […]
smiles,measurement,setting,value
CC1=CC(O)CC(O)Cc2nc(co2)C(=O)NC(C)C(=O)OC(C(C)C)C(C)C=CC(=O)NCC=C1 (centres unmarked) [Factor A],MIC,Propionibacterium acnes,8 µg/mL
same,MIC,[1],128 µg/mL
same,LD50,"Acute toxicity in mice; mouse, in vivo, ip, intraperitoneally",> 400 mg/kg
same,"acute toxicity, LDo",Acute toxicity in mice; orally,greater than 500 mg./kg.
same,"acute toxicity, LDo",Acute toxicity in mice; subcutaneously,greater than 500 mg./kg.
